These results are taken from patent US6911435B1 (Can-Fite Biopharma Ltd., priority 1997, dated 2005).

For series [1], the system named is IL-12. As to the kind of experiment: IL-12 production by peripheral blood mononuclear cells. The class given is cell-based, human. Conditions: 4 μM adenosine. How it is done:
Mononuclear cells (MNC) were fractionated from heparinized blood of 10 healthy volunteers using Ficoll-Hypaque gradient. […] At the end of the incubation period the supernatant was collected, centrifuged and filtered through 0.22μ sterile filter and kept at −70° C. until assayed. The level of IL-12 in the supernatants was analyzed using a commercial kit of R&D System.

Series [2] has as its system human peripheral blood NK cells. As to the kind of experiment: NK activity of peripheral blood cells, 51Cr-release assay, K562 targets. The class given is cell-based. Conditions: 4 μM adenosine, 18 hours preincubation. The method, then: K562 cells were used as the targets (T) and were labeled with 100 μCi of Na2[^51Cr]O4 at 37° for 1 h. After extensive washing to remove the excess Cr, cells (1×10^4) were resuspended and mixed with the effector cells at the E:T ratio of […] in a volume of 200 μl using triplicate assays. After 4 h of incubation at 37° C. in 5% CO2, plates were centrifuged, and the supernatants were counted in a gamma counter (LKB). […] Spontaneous release was below 8% of the maximal release throughout this experiment.

Series [3] concerns blood cells. The experiment in a line: Example 3 in vivo: blood cell parameters after adenosine and/or chemotherapy. As to conditions: for white blood cell count versus control: Example 3, in words. The method, then:
40 C57BL6/J were divided into 4 groups, each of which was treated (by intraperitoneal injection) according to one of the following protocols: • 1. Control group: 6 days of treatment by daily injection of 1 ml saline. • 2. Chemotherapy group: daily injection of 1 ml saline for 5 consecutive days. On day 6 the mice were injected intraperitoneally with cyclophosphamide. • 3. […] On day 6 the mice were injected intraperitoneally with 1 ml saline. • 4.
The following parameters were evaluated for each group: • i. Red blood cell (RBC) count. • ii. Hemoglobin (HGB) level. • iii. White blood cell count. • iv. Proportion of the three major groups of white blood cells: Lymphocytes (LYM), Monocytes (MID) and Granulocytes (GRAN). Results

Series [4] deals with leukemia, lymphoma and the solid tumor cell lines. The experiment in a line: [3H]-Thymidine incorporation assay, tumor cell lines. The class given is cell-based, human, murine. Conditions: adenosine 4 μM, FIG. 2. The text has this:
Tumor cell lines from human (K562 myeloid leukemia, Tib-180 erythroleukemia, LNCaP prostate carcinoma and MDA-MB468 breast adenocarcinoma), and murine (Yac lymphoma, B-16 melanoma) were used and were purchased from the American Type Tissue Culture Collection, Rockville. Nb2 11c rat lymphoma cells (Pines et al.^(19), were also used. The cells were routinely maintained in RPM medium containing 10% fetal calf serum. Twice a week the cells were transferred to a freshly prepared medium.
(§1) During the last 6 hours of incubation, each well was pulsed with 1 μCi[^3H]-Thymidine. The cells were harvested and the [^3H]-Thymidine uptake was determined in an LKB liquid scintillation counter (LKB, Piscataway, N.J., USA).

Series [5] concerns normal cells (bone marrow cells, fibroblasts, L-8 myoblast). The experiment in a line: [3H]-Thymidine incorporation assay, normal cells. The class given is cell-based, mice, rat. As to conditions: adenosine 4 μM, FIG. 2. How it is done: As a control for tumor proliferating cells, two normal proliferating cell types were used i.e., bone marrow cells derived from the femur of C57BL/6J mice; fibroblasts derived from primary cultures of newborn rat skeletal muscle cells. The cells were prepared as previously, (Djaldetti, M., Sredni, B., Zigelman, R., Verber, M., and Fishman, P. Muscle cells produce a low molecular weight factor with anti-cancer activity. Clin. Exp. Matastasis, 14:189-196, 1996). Also used was the L-8 myoblast rat cell line which was purchased from the ATCC.
as §1
Background: Incorporation of labelled thymidine or its analogues reports DNA synthesis.

The subject of series [6] is Nb2-11C lymphoma cells. The experiment in a line: Cell count assay, proliferation of Nb2-11C lymphoma cells. The class given is cell-based, rat. As to conditions: adenosine 1-20 μM, 48 hours. How it is done: The Nb2-11C cells were synchronized in the GO/Gl phase prior to cultivation with the CM by transferring the cells to horse serum (Biological Industries, Beit Haemek, Israel) supplemented medium for overnight incubation. […] Cell proliferation was initiated by the addition of Human Growth Hormone (Biotechnology General, Rehovot, Israel) to a final concentration of 2 ng/ml. The cultures were incubated at 37° C. at 5% CO2 and counted in Coulter Counter 48 hours later.

The test system of series [7] is bone marrow cells. The experiment in a line: Bone marrow cell proliferation in vitro (adenosine dose response, adenosine receptor antagonists). The class given is cell-based, C57BL/6J mice. Conditions: FIG. 3. The method, then: as §1
For series [8], the system named is B-16-F10 melanoma cells. The experiment in a line: Example 4 in vivo: B-16-F10 melanoma lung tumor foci. Conditions: for No. of foci (melanoma tumor foci in the lung): 18 days, adenosine 1 ml 5 mM daily i.p. Further details: species or system C57BL6/J mice.
For series [9], the system named is K562 cells. The experiment in a line: K562 cell proliferation with adenosine and theophylline. The class given is cell-based, human. The method, then:
as §1
Culture conditions were identical to those described above.

For series [10], the system named is white blood cells. The experiment in a line: Example 2 in vivo: white blood cell count after adenosine and/or cyclophosphamide. Further details: species or system C57BL6/J mice. As to conditions: i.p. The method, then: (§2) On day 6 the mice were injected intraperitoneally with 1 ml saline. • 4. chemotherapy group: daily injection of 1 ml saline for 5 consecutive days. On day 6 the mice were injected intraperitoneally with cyclophosphamide.
[…] Proliferation capacity of bone marrow: bone marrow was aspirated from the femur and pooled for each tested group. The cells were separated, counted and the proliferative capacity was evaluated by the [^3H]-Thymidine incorporation assay as described above.

The subject of series [11] is bone marrow cells. The experiment in a line: Example 2: proliferation capacity of bone marrow from treated mice ([3H]-Thymidine). The class given is in vivo, C57BL6/J mice. As to conditions: after 24 hours. How it is done:
as §1, §2
Five mice of each group were sacrificed […] and 96 hrs following the treatments and two parameters were evaluated: • 1. complete blood cell count. • 2. Proliferation capacity of bone marrow: bone marrow was aspirated from the femur and pooled for each tested group. The cells were separated, counted and the proliferative capacity was evaluated by the [^3H]-Thymidine incorporation assay as described above.

Series [12] concerns white blood cells. The experiment in a line: Example 5 in vivo: white blood cell count and percentage of granulocytes. Further details: species or system C57BL6/J mice. How it is done: 50 C57BL6/J mice were divided into 5 groups of 10 mice each, which were treated by intraperitoneal injection with one of the following treatments: • 1. Control group: 6 days of treatment by daily injection of 1 ml saline. • 2. […] Chemotherapy group: daily injection of 1 ml saline for 5 consecutive days. On day 6 the mice were injected intraperitoneally with cyclophosphamide. • 5. […] On day 6 the mice were injected intraperitoneally with cyclophosphamide. Results

Series [13] deals with NK cells. The experiment in a line: NK activity of splenocytes from adenosine treated mice, Yac targets. The class given is in vivo, ICR mice. As to conditions: 5 consecutive days 10 μM adenosine; two effector:target ratios; FIG. 8.
The mark [14] stands for this setting: 5 μM adenosine group, daily i.p. 6 days.
[15] abbreviates: adenosine where given 10 μM, cyclophosphamide where given on day 6.

Regarding `Nc1ncnc2c1ncn2[C@@H]1O[C@H](CO)[C@@H](O)[C@H]1O` [adenosine], in [1] (18 hours, FIG. 7), the “production of IL-12 in the presence of SAC mitogen” value is listed as “stimulated the production of IL-12”. Also, the “stimulation of IL-12 production without mitogen” value in [1] (no mitogen) is recorded as 19%. Also, the “stimulation of NK activity” value in series [2] was 32%. Besides, in [3], the “white blood cell count versus control” value is “boosted to levels above control”. Further, in series [3] (mean±S.E.), the “% GRAN (granulocytes, % out of the number of white blood cells)” value is given as 21.03 ± 2.75%; the “% LYM (lymphocytes, % out of the number of white blood cells)” value came to 65.57 ± 3.35%; the “% MID (monocytes, % out of the number of white blood cells)” value is recorded as 13.4 ± 0.70%. For the same compound, the “HGB (hemoglobin count)” value in series [3] (mouse, in vivo) turned out to be 14.03 ± 0.20 gram/100 ml. The “proliferation of leukemia, lymphoma and solid tumor cell lines” value in [4] is recorded as “induced proliferation inhibition”. Besides, the “proliferation of the three tested normal cells” value in [5] was “stimulated the proliferation”. Also, the “growth of Nb2-11c rat lymphoma cells (cell count)” value in series [6] is reported as “markedly inhibited”. Also, the “concentration of peak stimulatory activity on bone marrow cell proliferation” value in series [7] was “about 10 μM”. Also, in series [8], the “No. of foci (melanoma tumor foci in the lung)” value came out at 6.11 ± 2.74. For the same compound, the “tumor load (tumor foci in the lungs)” value in series [8] (oral 0.5 ml of 10 μM adenosine, about 54 μg/kg, with chemotherapeutic drug, FIG. 6) is given as “synergized with the chemotherapeutic drug to reduce the tumor load”. In addition, in series [9] (adenosine 4 μM, FIG. 4), the “K562 tumor cell proliferation” value is “inhibited tumor cell proliferation”. Further, the WBC count in series [10] (24 hours after treatment) is 9.37 ± 0.26 × 10^6/ml. Besides, the WBC count in series [10] (96 hours after treatment) was 6.8 ± 0.73 × 10^6/ml. For the same compound, in [11], the “Bone Marrow Cell Proliferation” value is 1480.0 ± 68.5 CPM. In series [12] (setting [14]), this compound displayed a GRAN of 9.00% and a WBC of 9.50 count × 10^3/I. For the same compound, in series [12] (setting [15]), the GRAN amounted to 10.76% and the WBC came to 7.56 count × 10^3/I. In addition, the “NK activity of splenocytes, lysis of Yac target cells” value in series [13] is “more potent in lysing the Yac target cells”.
Regarding `O=P1(N(CCCl)CCCl)NCCCO1` (centres unmarked) [cyclophosphamide], in series [3], the “white blood cell count versus control” value is given as “caused a reduction in the amount of white blood cells”. For the same compound, in series [3] (mean±S.E.), the “% GRAN (granulocytes, % out of the number of white blood cells)” value came to 10.28 ± 1.59%; the “% LYM (lymphocytes, % out of the number of white blood cells)” value was found to be 81.94 ± 2.49%; the “% MID (monocytes, % out of the number of white blood cells)” value was 7.78 ± 0.92%; the “HGB (hemoglobin count)” value was determined as 14.88 ± 8.32 gram/100 ml. In addition, the “No. of foci (melanoma tumor foci in the lung)” value in [8] is 4.16 ± 1.42. The WBC count in series [10] (24 hours after treatment) is recorded as 3.8 ± 0.18 × 10^6/ml. In addition, the WBC count in [10] (96 hours after treatment) is on record as 3.62 ± 0.17 × 10^6/ml. Besides, the “Bone Marrow Cell Proliferation” value in [11] turned out to be 434.5 ± 52.2 CPM. In series [12] (setting [15]), the GRAN is 7.70% and the WBC stood at 5.00 count × 10^3/I.
In the case of `Cn1c(=O)c2[nH]cnc2n(C)c1=O` [theophylline, Theophylline], the “effect on the inhibitory effect of adenosine on tumor cell proliferation” value in series [9] (theophylline 0.1 μM with 4 μM adenosine, K562) is on record as “this inhibitory effect was neutralized”.
